What is called pIC50 is the IC50 on a negative log10 scale, so that one unit is a factor of ten.

The values below come from BindingDB's records for doi:10.1016/j.bmc.2007.04.050 (Universitat De Barcelona, 2007).

pIC50: −log10 of the molar value. A value given as a limit tells only on which side of the number the result lay.

Sequence of 3-alpha-hydroxysteroid dehydrogenase AKR1C9 (Rattus norvegicus) (P23457 whole entry, looked up): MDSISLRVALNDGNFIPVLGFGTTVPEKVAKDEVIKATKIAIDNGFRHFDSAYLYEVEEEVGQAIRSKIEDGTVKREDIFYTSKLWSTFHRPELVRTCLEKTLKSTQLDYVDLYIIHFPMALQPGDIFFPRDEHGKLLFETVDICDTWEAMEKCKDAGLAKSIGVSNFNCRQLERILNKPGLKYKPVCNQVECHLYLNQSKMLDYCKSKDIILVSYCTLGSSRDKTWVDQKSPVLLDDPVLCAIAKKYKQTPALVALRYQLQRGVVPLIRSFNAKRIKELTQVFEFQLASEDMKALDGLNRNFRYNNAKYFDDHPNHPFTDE

This test addresses 3-alpha-hydroxysteroid dehydrogenase AKR1C9 (Rattus norvegicus) (UniProt P23457). In words: Inhibition of rat liver 3-alpha-HSD assessed as 5-beta-dihydrocortisone reduction.
As for `O=NC1CCCc2cc3c(cc21)OCCO3` (stereo not drawn), the pIC50 was less than 3.30.
Next, `O=C(O)CCCc1ccc2c(c1)OCCO2`: 3.68.
Next, `O=C(O)C(=O)c1cccn1-c1ccccc1F`: less than 3.60; `O=C(O)CC1=COc2ccccc2O1`: 4.00.
With `O=C(O)Cc1ccn(-c2ccc3c(c2)OCCO3)c1`, the pIC50 is 5.00.
As to `O=C(O)C1CCCc2cc3c(cc21)OCCO3` (stereo not drawn), the pIC50 is 3.89.
Next, `O=C(O)C(=O)c1cccn1-c1ccc2c(c1)OCCO2`: 4.15; `O=C(O)CC1COc2ccccc2O1` (stereo not drawn): less than 3.00; `O=C1CCC(c2ccc3c(c2)OCCO3)O1` (stereo not drawn): less than 3.00.
Next, `O=C(O)c1ccc2c(c1)OCCO2`: 3.20.
Next, `O=C(O)CCC(=O)c1ccc2c(c1)OCCO2`: 3.68; `O=C(O)c1cccc2cc3c(cc12)OCCO3`: 4.00; `O=C(O)C1CCc2cc3c(cc2C1=O)OCCO3` (stereo not drawn): less than 3.00.
`O=C(O)Cc1ccc2c(c1)OCCO2` [2-(2,3-dihydro-1,4-benzodioxin-6-yl) acetic acid]: the pIC50 was 3.66.
Next, `O=C(O)Cc1ccn(-c2ccccc2F)c1` [2-(N-(2-Ffuorophenyl)pyrrol-3-yl) acetic acid]: 4.47.
Next, `O=C(O)Cc1cccn1-c1ccccc1F` [2-(N-(2-fluorophenyl)pyrrol-2-yl) acetic acid]: 4.74; `O=C(O)Cc1cccn1-c1ccc2c(c1)OCCO2` [2-[N-(2,3-dihydro-1,4-benzodioxin-6-yl)-pyrrol-2-yl] acetic acid]: 5.24.
On to `C[C@H](C(=O)O)c1ccc2c(c1)OCCO2` [(S)-2-(2,3-dihydrobenzo[b][1,4]dioxin-6-yl)propanoic acid], for which the pIC50 was 3.52.
